# pIC50: −log10 of the molar value.
# Tested on: 186277-243-T-J2-PDC complex spheroid viability
# Assay: Anticancer human tumor 186277-243-T-J2-PDC patient-derived colon adenocarcinoma cell line growth inhibition [GQUAD]
# Conditions: for pIC50: curve of first compound; for viability, T/C: stronger effect = lower value
# How it was run: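 Multi-cell-type spheroids of tumor cells with HUVEC and mesenchymal stem cells, treated with drug combinations. Concentrations descend in half-log steps from near clinical Cmax, or from 10 microM where Cmax is unknown; viability read-out.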
# 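Note: spheroids exposed to drugs for 7 days.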
# 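Throughout, for viability, T/C: 100% = DMSO vehicle control viability.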
compound,measurement,setting,value
CC1COCCN1c1cc(C2(S(C)(=N)=O)CC2)nc(-c2ccnc3[nH]ccc23)n1 (configuration not stated) + Cc1cnc(CNC(=O)c2c(=O)c3ccc(N4CCCN(C)CC4)nc3n3c2sc2ccccc23)cn1,pIC50,second compound 0.0316 µM,6.10
same,pIC50,second compound 0.1 µM,6.24
same,pIC50,second compound 0.316 µM,6.05
same,pIC50,second compound 1 µM,6.25
same,pIC50,second compound 3.16 µM,> 7.50
same,pIC50,second compound 10 µM,7.18
same,"viability, T/C","second compound 0.0316 µM, first compound 0.0316 µM",107%
same,"viability, T/C","second compound 0.0316 µM, first compound 0.1 µM",92.4%
same,"viability, T/C","second compound 0.0316 µM, first compound 0.316 µM",89.8%
same,"viability, T/C","second compound 0.0316 µM, first compound 1 µM",39.4%
same,"viability, T/C","second compound 0.0316 µM, first compound 3.16 µM",13.1%
same,"viability, T/C","second compound 0.0316 µM, first compound 10 µM",8.67%
same,"viability, T/C","second compound 0.1 µM, first compound 0.0316 µM",101%
same,"viability, T/C","second compound 0.1 µM, first compound 0.1 µM",73.4%
same,"viability, T/C","second compound 0.1 µM, first compound 0.316 µM",68.2%
same,"viability, T/C","second compound 0.1 µM, first compound 1 µM",39.8%
same,"viability, T/C","second compound 0.1 µM, first compound 3.16 µM",18.4%
same,"viability, T/C","second compound 0.1 µM, first compound 10 µM",9.76%
same,"viability, T/C","second compound 0.316 µM, first compound 0.0316 µM",73.3%
same,"viability, T/C","second compound 0.316 µM, first compound 0.1 µM",83.1%
same,"viability, T/C","second compound 0.316 µM, first compound 0.316 µM",66.7%
same,"viability, T/C","second compound 0.316 µM, first compound 1 µM",47.5%
same,"viability, T/C","second compound 0.316 µM, first compound 3.16 µM",27.2%
same,"viability, T/C","second compound 0.316 µM, first compound 10 µM",17%
same,"viability, T/C","second compound 1 µM, first compound 0.0316 µM",46.2%
same,"viability, T/C","second compound 1 µM, first compound 0.1 µM",64.6%
same,"viability, T/C","second compound 1 µM, first compound 0.316 µM",64.6%
same,"viability, T/C","second compound 1 µM, first compound 1 µM",41.6%
same,"viability, T/C","second compound 1 µM, first compound 3.16 µM",31.6%
same,"viability, T/C","second compound 1 µM, first compound 10 µM",21.3%
same,"viability, T/C","second compound 3.16 µM, first compound 0.0316 µM",41.8%
same,"viability, T/C","second compound 3.16 µM, first compound 0.1 µM",48.6%
same,"viability, T/C","second compound 3.16 µM, first compound 0.316 µM",50.6%
same,"viability, T/C","second compound 3.16 µM, first compound 1 µM",44.5%
same,"viability, T/C","second compound 3.16 µM, first compound 3.16 µM",39.2%
same,"viability, T/C","second compound 3.16 µM, first compound 10 µM",19.4%
same,"viability, T/C","second compound 10 µM, first compound 0.0316 µM",50.6%
same,"viability, T/C","second compound 10 µM, first compound 0.1 µM",52%
same,"viability, T/C","second compound 10 µM, first compound 0.316 µM",43.2%
same,"viability, T/C","second compound 10 µM, first compound 1 µM",37%
same,"viability, T/C","second compound 10 µM, first compound 3.16 µM",31.6%
same,"viability, T/C","second compound 10 µM, first compound 10 µM",22%
